According to EP1763300B1 (priority 2004, dated 2006):
Values after ≈ are worked out from the molar mass of the structure shown.

What was measured:
Assay type in all cases: physicochemical
[1] = Solubility in distilled water; conditions: no polymer, read-out: Löslichkeit in destilliertem Wasser
Excerpt: Verschiedene schlecht wasserlösliche Substanzen wurden eingesetzt, um die Eignung der erfindungsgemäßen Polymere als Lösungsvermittler zu testen. Tabelle 1

[2] = Solubilisation with polymer of Herstellungsbeispiel 1 by Verfahren 1 (solid solution), HPLC-UV; conditions: buffer with polymer, pH 6, 1440 min
[3] = Solubilisation with polymer of Herstellungsbeispiel 2 by Verfahren 1 (solid solution), HPLC-UV; conditions: buffer with polymer, pH 6, 1440 min
Experimental: 0,5 g eines Polymers und 0,1 g einer ausgewählten Substanz wurden in DMF (ca. 20 ml) gelöst. Das Gemisch wurde gerührt und DMF wurde vollständig evaporiert, so daß eine […] der organischen Moleküle in dem Polymer erhalten wurde. […] […] Nach der Filtration wurde die Lösung mittels HPLC analysiert (Detektor UV) und die Konzentration der Substanzen bestimmt.

| Compound | solubility [1] | Löslichkeit in Gegenwart von Polymer [2] | in Gegenwart von Polymer [3] |
| --- | --- | --- | --- |
| CCOC(=O)/C(Cl)=C/c1cc(N2C(=O)C3=C(CCCC3)C2=O)ccc1Cl [Cinidon-Ethyl] | 0.057 µg/mL (≈ 0.145 µM) | 0,5 mg/l | 57 mg/L |
| CC1(C)CCC(Cc2ccc(Cl)cc2)C1(O)Cn1cncn1 (centres unmarked) [Metconazol] | 15 µg/mL (≈ 46.9 µM) |  |  |
| CN1C(C(=O)Nc2ccccn2)=C(O)c2ccccc2S1(=O)=O [Piroxicam] | 23 µg/mL (≈ 69.4 µM) | 92 mg/L | 167 mg/L |
| COC(=O)N(OC)c1ccccc1COc1ccn(-c2ccc(Cl)cc2)n1 [Pyraclostrobin] | 2.4 µg/mL (≈ 6.19 µM) |  |  |
| CCCCC(CC)COC(=O)c1ccc(Nc2nc(Nc3ccc(C(=O)OCC(CC)CCCC)cc3)nc(Nc3ccc(C(=O)OCC(CC)CCCC)cc3)n2)cc1 (centres unmarked) [Uvinul T150®, Octyltriazon] | 0.007 µg/mL (≈ 0.0085 µM) | 2,3 mg/l | 79 mg/L |
